We go through five molecules from ChEMBL document CHEMBL5647698, “Covalent-Allosteric Inhibitors to Achieve Akt Isoform-Selectivity” (Angew Chem Int Ed Engl, 2019).

Assay [1] has as its target RAC-alpha serine/threonine-protein kinase (Homo sapiens, UniProt P31749). The experiment in a line: biochemical.
Assay [2] relates to PANC-1. The experiment in a line: Downregulation of p-PRAS40 level at threonine 246 residue in Akt1 knockout human PANC-1 cells measured after 24 hrs by Western blotting analysis. Format: functional, cell-based. The conditions noted are these: dose 0.3-5 µM.
In assay [3] the test system is PANC-1. The experiment in a line: Downregulation of p-AKT level at serine 473 residue in Akt1 knockout human PANC-1 cells measured after 24 hrs by Western blotting analysis. It counts as functional, cell-based. The settings on record: dose 0.3-5 µM.
The target of assay [4] is RAC-gamma serine/threonine-protein kinase (Homo sapiens, UniProt Q9Y243).
Sequence of RAC-gamma serine/threonine-protein kinase (Q9Y243 whole entry): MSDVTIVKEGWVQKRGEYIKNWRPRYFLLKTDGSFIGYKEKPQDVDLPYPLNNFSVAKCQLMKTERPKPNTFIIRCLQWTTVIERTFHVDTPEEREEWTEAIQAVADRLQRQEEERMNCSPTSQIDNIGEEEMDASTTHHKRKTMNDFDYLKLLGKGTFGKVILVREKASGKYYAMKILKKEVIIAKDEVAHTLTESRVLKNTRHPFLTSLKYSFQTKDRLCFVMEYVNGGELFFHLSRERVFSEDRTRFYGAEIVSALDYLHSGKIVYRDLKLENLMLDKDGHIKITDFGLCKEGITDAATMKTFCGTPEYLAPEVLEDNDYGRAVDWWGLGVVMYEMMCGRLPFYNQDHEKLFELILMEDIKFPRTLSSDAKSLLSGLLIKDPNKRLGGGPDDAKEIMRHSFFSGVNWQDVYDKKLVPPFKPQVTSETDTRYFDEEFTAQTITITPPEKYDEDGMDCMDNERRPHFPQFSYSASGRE
Description: Inhibition of wild-type AKT3 (unknown origin) by HTRF KinEASE assay

Activity calls are given as the source filed them. No cut-off for these calls is given here.

Sequence of RAC-alpha serine/threonine-protein kinase (P31749 whole entry): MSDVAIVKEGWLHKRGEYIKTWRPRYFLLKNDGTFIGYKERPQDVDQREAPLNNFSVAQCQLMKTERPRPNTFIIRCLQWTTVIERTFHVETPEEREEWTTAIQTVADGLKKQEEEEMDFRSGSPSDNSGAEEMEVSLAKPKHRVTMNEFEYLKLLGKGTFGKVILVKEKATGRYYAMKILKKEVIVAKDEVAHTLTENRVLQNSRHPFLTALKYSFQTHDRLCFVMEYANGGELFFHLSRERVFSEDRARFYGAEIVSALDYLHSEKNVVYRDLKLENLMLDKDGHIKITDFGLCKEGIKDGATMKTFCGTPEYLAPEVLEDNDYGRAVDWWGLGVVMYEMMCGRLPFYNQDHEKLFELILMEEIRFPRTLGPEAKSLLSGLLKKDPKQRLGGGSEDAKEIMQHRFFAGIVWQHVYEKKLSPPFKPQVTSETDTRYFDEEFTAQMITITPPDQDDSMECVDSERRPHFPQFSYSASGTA

Consider `CC(C)Cc1nc(-c2ccccc2)c(-c2ccc(CN3CCC(n4c(=O)[nH]c5ccc(N)cc54)CC3)cc2)[nH]c1=O`, for which it took 2.83 µM to reach half-maximal inhibition in assay [1] (IC50).

For `C=CC(=O)Nc1ccc2[nH]c(=O)n(C3CCN(Cc4ccc(-c5[nH]c(=O)c(C)nc5-c5ccccc5)cc4)CC3)c2c1`, the result in the assay with PANC-1 [2] and with PANC-1 [3] was Active.

With `C=CC(=O)Nc1ccc2[nH]c(=O)n(C3CCN(Cc4ccc(-c5nc6cc[nH]c(=O)c6cc5-c5ccccc5)cc4)CC3)c2c1`, the result in the assay on PANC-1 [2] and in the assay with PANC-1 [3] was Active.

As to `C=CC(=O)Nc1ccc2[nH]c(=O)n(C3CCN(Cc4ccc(-c5[nH]c(=O)c(CC(C)C)nc5-c5ccccc5)cc4)CC3)c2c1`, the result with PANC-1 [2] and in the assay with PANC-1 [3] was Active.

For `Nc1ccc2[nH]c(=O)n(C3CCN(Cc4ccc(-c5[nH]c(=O)c(Cc6ccc(O)cc6)nc5-c5ccccc5)cc4)CC3)c2c1`, the IC50 stood at 5.59 µM in assay [1] and 17.7 µM in assay [4].
